Among the test systems are CCRF-CEM; MDA-MB-231; 786-0; Malme-3M; MOLT-4; RPMI-8226; SK-OV-3; DU-145; MDA-MB-435; UACC-257; HCC 2998; HOP-62; BT-549; OVCAR-4; UO-31; SK-MEL-28; NCI-H23; EKVX; SR; SF-268.
Experiment in all cases: NCI anticancer screen, dose series, 48 h

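Briefly, cells in 96-well plates were exposed to five compound concentrations for 48 h, and endpoints were estimated by linear interpolation. GI50 is the concentration that inhibits growth by half.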 Calls of active or inactive are those of the source. No stated cut-off is given here; in the data, active = GI50 up to about 1.1 µM and inactive = higher. Where only a bound is given, the exact number is not on record here.

`CSC1=NN(C(C)=O)C(C(OC(C)=O)C(OC(C)=O)C(OC(C)=O)C(COC(C)=O)OC(C)=O)S1` (stereo not given): the GI50 in the experiment with CCRF-CEM, in the experiment on MDA-MB-231, in the experiment with 786-0, in the experiment with Malme-3M, in the experiment with MOLT-4 and in the experiment with RPMI-8226 was > 100 µM (inactive) in each case. Also, the GI50 in the experiment with SK-OV-3, with DU-145, in the experiment with MDA-MB-435, in the experiment on UACC-257, with HCC 2998 and in the experiment on HOP-62 was > 100 µM (inactive) in each case. Moreover, the GI50 in the experiment with BT-549 is > 100 µM (inactive); in the experiment with OVCAR-4 it was > 100 µM (inactive); in the experiment with UO-31 it was 11 µM (inactive); with SK-MEL-28, > 100 µM (inactive); in the experiment with NCI-H23 it was > 100 µM (inactive); with EKVX, > 100 µM (inactive). Besides, the GI50 with SR and with SF-268 was > 100 µM (inactive) throughout.

With `O=C(/C=C/c1ccccc1O)CC(=O)/C=C/c1ccccc1O`, the GI50 in the experiment with CCRF-CEM is 3.1 µM (inactive); with MDA-MB-231, > 10 µM (inactive); in the experiment on 786-0 it was 4.21 µM (inactive); with Malme-3M, 11.7 µM (inactive); in the experiment on MOLT-4, 3.78 µM (inactive); in the experiment on RPMI-8226, 2.93 µM (inactive). Further, the GI50 was > 10 µM (inactive) with SK-OV-3; 14.5 µM (inactive) in the experiment with DU-145; 4.38 µM (inactive) in the experiment on MDA-MB-435; 10.3 µM (inactive) in the experiment with UACC-257; 10.5 µM (inactive) in the experiment with HCC 2998; 11.8 µM (inactive) with HOP-62. For the same compound, the GI50 in the experiment with BT-549 was 5.62 µM (inactive); in the experiment on OVCAR-4, 15.1 µM (inactive); in the experiment with UO-31 it was 4.73 µM (inactive); in the experiment on SK-MEL-28, 12.8 µM (inactive); in the experiment on NCI-H23, 2.81 µM (inactive); in the experiment on EKVX, 13.3 µM (inactive). Moreover, the results for the GI50 in the experiment on SR and in the experiment with SF-268 were 2.67 µM (inactive) and > 10 µM (inactive), respectively.

Regarding `NC(=O)c1nc[nH]c1/N=N/SCC(N)C(=O)O` (stereo not given), the GI50 in the experiment with CCRF-CEM is 2 µM (inactive); in the experiment with MDA-MB-231 it was 6.04 µM (inactive); with 786-0, 19.4 µM (inactive); with Malme-3M, 5.9 µM (inactive); in the experiment on MOLT-4 it was 0.962 µM (active); in the experiment with RPMI-8226 it was 6.24 µM (inactive). The GI50 with SK-OV-3 is 2.88 µM (inactive); in the experiment with DU-145 it was 5.11 µM (inactive); in the experiment with MDA-MB-435, 33.1 µM (inactive); in the experiment with UACC-257 it was 54.8 µM (inactive); in the experiment on HCC 2998 it was 4.06 µM (inactive); in the experiment with HOP-62, 28.7 µM (inactive). Besides, the GI50 in the experiment on BT-549 is > 90.8 µM (inactive); with OVCAR-4, 11.3 µM (inactive); in the experiment on UO-31 it was 4.22 µM (inactive); in the experiment with SK-MEL-28, > 100 µM (inactive); in the experiment with NCI-H23, > 78.9 µM (inactive); with EKVX, > 75.7 µM (inactive). Also, the GI50 with SR is 0.773 µM (active); with SF-268 it was 10.7 µM (inactive).

With `CCOC(=O)c1c(N2CCCC2)ncn(Cc2ccccc2)c1=S`, the GI50 was > 100 µM (inactive) with CCRF-CEM; > 100 µM (inactive) in the experiment with MDA-MB-231; > 100 µM (inactive) with 786-0; > 100 µM (inactive) in the experiment on Malme-3M; 92.3 µM (inactive) with MOLT-4; > 100 µM (inactive) in the experiment on RPMI-8226. Further, the GI50 in the experiment with SK-OV-3, in the experiment on DU-145, with MDA-MB-435, with UACC-257, with HCC 2998 and in the experiment on HOP-62 was > 100 µM (inactive) in each case. Moreover, the GI50 in the experiment on BT-549 is > 100 µM (inactive); in the experiment on OVCAR-4 it was 91.4 µM (inactive); in the experiment on UO-31 it was 55.8 µM (inactive); in the experiment with SK-MEL-28, > 100 µM (inactive); with NCI-H23, > 100 µM (inactive); in the experiment with EKVX, > 100 µM (inactive). For the same compound, the GI50 in the experiment with SR and with SF-268 was > 100 µM (inactive) in each case.

For `O=[N+]([O-])c1ccc(C(=S)Nc2ccccc2)o1`, the GI50 in the experiment with CCRF-CEM is 2.45 µM (inactive); with MDA-MB-231 it was 2.74 µM (inactive); in the experiment with 786-0 it was 2.07 µM (inactive); with Malme-3M it was 2.91 µM (inactive); with MOLT-4 it was 1.26 µM (inactive); with RPMI-8226, 1.53 µM (inactive). Also, the GI50 is 11.4 µM (inactive) in the experiment with SK-OV-3; 6.41 µM (inactive) in the experiment on DU-145; 2.58 µM (inactive) in the experiment with MDA-MB-435; 4.3 µM (inactive) with UACC-257; 1.69 µM (inactive) in the experiment on HCC 2998; 2.65 µM (inactive) in the experiment on HOP-62. Also, the GI50 in the experiment with BT-549 was 4.76 µM (inactive); with OVCAR-4 it was 2.43 µM (inactive); in the experiment with UO-31, 2.32 µM (inactive); with SK-MEL-28 it was 4.27 µM (inactive); in the experiment with NCI-H23, 3.35 µM (inactive); in the experiment on EKVX, 5.11 µM (inactive). In addition, the GI50 in the experiment on SR is 1.79 µM (inactive); in the experiment on SF-268, 3.36 µM (inactive).

`C[C@H](CCc1nc(C#N)c(N)o1)[C@H]1CC[C@H]2[C@@H]3CCC4C[C@@H](O)CC[C@]4(C)[C@H]3C[C@@H](O)[C@]12C` (stereo not given in full): the GI50 in the experiment on CCRF-CEM was 0.143 µM (active); with MDA-MB-231, 17.1 µM (inactive); in the experiment on 786-0 it was 10.8 µM (inactive); with Malme-3M, 14.4 µM (inactive); in the experiment with MOLT-4 it was 4.02 µM (inactive); in the experiment with RPMI-8226, 1.73 µM (inactive). The GI50 in the experiment on SK-OV-3 was 14.3 µM (inactive); in the experiment with DU-145, 14.5 µM (inactive); with MDA-MB-435, 15.1 µM (inactive); in the experiment on UACC-257 it was 7.73 µM (inactive); in the experiment on HCC 2998 it was 16.6 µM (inactive); in the experiment on HOP-62, 18.9 µM (inactive). In addition, the GI50 in the experiment with BT-549 is 2.65 µM (inactive); in the experiment with OVCAR-4, 1.03 µM (active); in the experiment with UO-31, 4.53 µM (inactive); in the experiment on SK-MEL-28, 13.1 µM (inactive); in the experiment on NCI-H23, 17.3 µM (inactive); in the experiment on EKVX it was 12.9 µM (inactive). Besides, the GI50 was 3.05 µM (inactive) in the experiment with SR and 11.3 µM (inactive) in the experiment on SF-268.

Take `O=C(c1c(F)c(F)c(F)c(F)c1F)n1c(O)nc2ccccc21`: the GI50 with CCRF-CEM was 4.53 µM (inactive); with MDA-MB-231, 12.2 µM (inactive); in the experiment with 786-0, 10.8 µM (inactive); in the experiment on Malme-3M, 14.8 µM (inactive); with MOLT-4, 4.47 µM (inactive); in the experiment with RPMI-8226 it was 3.03 µM (inactive). Further, the GI50 is 15.4 µM (inactive) in the experiment with SK-OV-3; 15.7 µM (inactive) in the experiment with DU-145; 10.1 µM (inactive) with MDA-MB-435; 5.69 µM (inactive) with UACC-257; 3.56 µM (inactive) in the experiment on HCC 2998; 17.2 µM (inactive) with HOP-62. Also, the GI50 with BT-549 was 18.5 µM (inactive); in the experiment with OVCAR-4, 13.3 µM (inactive); in the experiment with UO-31, 12.3 µM (inactive); in the experiment on SK-MEL-28, 15 µM (inactive); in the experiment with NCI-H23 it was 4.88 µM (inactive); with EKVX, 13.9 µM (inactive). Also, the GI50 is 2.62 µM (inactive) with SR and 14.7 µM (inactive) in the experiment on SF-268.

Regarding `CC1(C)OC2OC(COC(=O)C=[N+]=[N-])C3OC(C)(C)OC3C2O1` (stereo not given), the GI50 in the experiment on CCRF-CEM is > 100 µM (inactive); in the experiment with MDA-MB-231, > 100 µM (inactive); in the experiment on 786-0, > 100 µM (inactive); in the experiment with Malme-3M, > 100 µM (inactive); with MOLT-4, > 10 µM (inactive); in the experiment on RPMI-8226 it was > 100 µM (inactive). Also, the GI50 with SK-OV-3, in the experiment on DU-145, in the experiment on MDA-MB-435, in the experiment on UACC-257, with HCC 2998 and with HOP-62 was > 100 µM (inactive) throughout. For the same compound, the GI50 with BT-549, in the experiment with OVCAR-4, with UO-31, in the experiment on SK-MEL-28, in the experiment on NCI-H23 and with EKVX was > 100 µM (inactive) in each case. The GI50 in the experiment with SR and with SF-268 was > 100 µM (inactive) in each case.

For the compound `CCOP(=O)(O)C(Nc1ccc(/N=N/c2ccccc2)cc1)c1ccc(C(Nc2ccc(/N=N/c3ccccc3)cc2)P(=O)(O)OCC)cc1` (stereo not given), the GI50 in the experiment with CCRF-CEM is 22.1 µM (inactive); in the experiment on MDA-MB-231 it was 30 µM (inactive); in the experiment with 786-0 it was 26.8 µM (inactive); in the experiment on Malme-3M it was 17.9 µM (inactive); in the experiment with MOLT-4 it was 20.3 µM (inactive); in the experiment with RPMI-8226, 23.7 µM (inactive). In addition, the GI50 in the experiment with SK-OV-3 is 18.7 µM (inactive); with DU-145, > 100 µM (inactive); in the experiment with MDA-MB-435 it was 17.4 µM (inactive); in the experiment on UACC-257, 26.4 µM (inactive); in the experiment with HCC 2998, 17.9 µM (inactive); with HOP-62, 18.5 µM (inactive). Further, the GI50 is 18.1 µM (inactive) with BT-549; 42.8 µM (inactive) in the experiment on OVCAR-4; 67.1 µM (inactive) in the experiment with UO-31; 19.2 µM (inactive) with SK-MEL-28; 29.2 µM (inactive) in the experiment with NCI-H23; 18.7 µM (inactive) with EKVX. In addition, the values for the GI50 in the experiment with SR and with SF-268 were 19.8 µM (inactive) and 20.4 µM (inactive), respectively.

Take `C[C@@H]1C[C@H]2CC[C@H](O2)[C@H](C)C(=O)O[C@@H](C)C[C@@H]2CC[C@@H](O2)[C@@H](C)C(=O)O[C@H](C)C[C@H]2CC[C@H](O2)[C@H](C)C(=O)O[C@@H](C)C[C@@H]2CC[C@@H](O2)[C@@H](C)C(=O)O1`: the GI50 is 0.292 µM (active) in the experiment on CCRF-CEM; 0.345 µM (active) in the experiment on MDA-MB-231; 0.445 µM (active) with 786-0; 0.199 µM (active) in the experiment on Malme-3M; 0.36 µM (active) with MOLT-4; 0.0769 µM (active) in the experiment on RPMI-8226. Further, the GI50 was 0.2 µM (active) in the experiment with SK-OV-3; 1.43 µM (inactive) with DU-145; 0.338 µM (active) with MDA-MB-435; 0.242 µM (active) in the experiment on UACC-257; 1.1 µM (active) in the experiment with HCC 2998; 0.319 µM (active) in the experiment with HOP-62. Also, the GI50 in the experiment on BT-549 is 0.396 µM (active); in the experiment on OVCAR-4, 0.136 µM (active); in the experiment with UO-31, 0.374 µM (active); in the experiment with SK-MEL-28, 1.96 µM (inactive); with NCI-H23, 0.224 µM (active); in the experiment with EKVX, 0.283 µM (active). Further, the GI50 in the experiment with SR is 0.495 µM (active); in the experiment on SF-268, 0.316 µM (active).

Values taken from ChEMBL document CHEMBL1201862, “PubChem BioAssay data set” (2004).
